The record followed here is paper PMC9834240, “Senescent cells perturb intestinal stem cell differentiation through Ptk7 induced noncanonical Wnt and YAP signaling” (Nature Communications, 2023).

Holding throughout (format): cell-based
Assay [1] has as its system mouse intestinal organoids. Description: inhibition of Wnt5a-induced cystic organoids. More on the design: key to cystic organoids (sheet SF.5b): % cystic = 100×(1 − budding organoids treated/control). The settings on record: relative to Untreated = 0. On the procedure: The jejunum part of the small intestine was removed, flushed with PBS, opened longitudinally, then cut into 0.5 cm pieces. The collected tissues were washed with ice cold PBS multiple times by vortexing and incubated in PBS containing 2.5 mM EDTA for 5 min at 37 °C. After gentle shaking and aspiration, tissues were incubated in PBS containing 5 mM EDTA for 7 min at 37 °C. Tissues were then washed with PBS to remove EDTA and vigorously shaken to release crypts. The released crypts were passed through 70 μm strainers, washed with PBS, and pelleted by centrifugation at 200 × g. Resuspended crypts were mixed with Matrigel (Corning, #356231; Lot#8218007) and pipetted into culture plates. After mixture of crypts and Matrigel solidified, IntestiCult Organoid Growth Medium (Stem Cell Technologies, #06005; Lots #1000021927, #1000034230, #1000037372) was added. Seven days after seeding, organoids were resuspended in dissociation buffer (Gentle Cell Dissociation Reagent; Stem Cell Technologies, #07174), dissociated by pipetting, and seeded for experiments.
(§1) 3-4 biological replicates of organoids from different mice were used per condition. Organoids were cultured in the indicated media, inhibitors, antibodies and/or recombinant proteins for 5 d and fixed in 4% formaldehyde in PBS. Organoids were imaged with a 4× Plan Fluor objective (NA: 0.13, Nikon) on a Nikon Ti-E inverted microscope equipped with a Neo scMOS camera (Andor, Oxford Instruments), a linear encoded automated stage (Applied Scientific Instrumentation), all run by NIS Elements software (Nikon). Organoids were imaged in brightfield and images covering the whole well were stitched and focused into one image projection with an extended depth of focus module (EDF; Nikon). One hundred to 200 organoids per replicate per condition were counted and used for quantification. The number of budding organoids in each condition was normalized by the number of budding organoids in untreated or DMSO treated controls to calculate cystic organoid percentage:1 Cysticorganoidpercentage=100×1−Numberofbuddingorganoidsfromexperiment/Numberofbuddingorganoidsfromcontrol

The subject of assay [2] is mouse intestinal organoids. The assay can be described thus: cystic organoid percentage, organoids in conditioned media (SCM/QCM) with or without inhibitors or antibodies. The settings on record: for cystic organoid percentage: DMSO = 0; for effect on cystic organoid phenotype: SCM-exposed organoids; for percentage of cystic organoids: Fig. 3c, dialyzed, individual mice, n = 3. The procedure: Twenty-four hours before collecting conditioned media (CM), MEFs were washed with serum-free DMEM twice, and serum-free DMEM was added. After 24 h in serum-free DMEM, this CM was collected, filtered using Steriflip filters (Millipore, #SE1M179M6) to remove cell debris, and concentrated using centrifugal filter units (Amicon ultra-15 centricon; Millipore, # UFC900324). […] CM was filtered and dialyzed for 24–48 h to remove the inhibitors before concentration.
The jejunum part of the small intestine was removed, flushed with PBS, opened longitudinally, then cut into 0.5 cm pieces. The collected tissues were washed with ice cold PBS multiple times by vortexing and incubated in PBS containing 2.5 mM EDTA for 5 min at 37 °C. After gentle shaking and aspiration, tissues were incubated in PBS containing 5 mM EDTA for 7 min at 37 °C. Tissues were then washed with PBS to remove EDTA and vigorously shaken to release crypts. The released crypts were passed through 70 μm strainers, washed with PBS, and pelleted by centrifugation at 200 × g.
as §1

The test system of assay [3] is mouse intestinal organoids. The assay can be described thus: cystic organoid percentage, co-culture with quiescent or senescent intestinal fibroblasts. Also noted: key: % = 100×(1 − budding organoids treated/budding organoids control). The settings on record: relative to DMSO = 0. The procedure: as §1
Mouse intestinal fibroblasts were purchased from Cell Biologics (#C57-6231) and cultured in Complete Fibroblast Medium (Cell Biologics, M2267) at 37 °C and 5% CO2. Cellular quiescence and senescence in mouse intestinal fibroblasts were induced by the similar methods described earlier for MEFs with minor modifications. Briefly, cellular quiescence was induced by culturing the fibroblasts in low serum (0.5% FBS), and cellular senescence was induced by 500 nM doxorubicin treatment for 5 days (doxorubicin; Sigma-Aldrich, #44583). Once cellular quiescence or senescence was induced, MEFs were maintained at 37 °C, 5% CO2, and 3% O2 for another 5 days. The quiescent or senescent fibroblasts were dissociated using 0.05% Trypsin-EDTA (Gibco, #25300-054) and counted for seeding. The same number of quiescent and senescent fibroblasts (5.2 × 10^4 cells) were mixed with intestinal organoids making total volume of 20 μl of Matrigel: organoid culture media mix, which was mounted on a 48 well plate.

Values joined by “and” are separate entries in the source; they are usually repeats but may differ in a detail not shown here. Equal entries are not always repeated.

Regarding `CN1CCN(CCCN2c3ccccc3Sc3ccc(C(F)(F)F)cc32)CC1` [Trifluoperazine A], the “cystic organoids (sheet SF.5b)” value in assay [1] (100 nM Trifluoperazine A, no Wnt5a, replicate 1) is listed as 1.842; in assay [1] (100 nM Trifluoperazine A, no Wnt5a, replicate 2) it was -0.6895; in assay [1] (100 nM Trifluoperazine A, no Wnt5a, replicate 3), -1.481; in assay [1] (100 nM Trifluoperazine A, no Wnt5a, replicate 4) it was 3.596; in assay [1] (1 uM Trifluoperazine A, no Wnt5a, replicate 1), -0.2581; in assay [1] (1 uM Trifluoperazine A, no Wnt5a, replicate 2), -2.568. Further, the “cystic organoids (sheet SF.5b)” value is -0.6142 in assay [1] (1 uM Trifluoperazine A, no Wnt5a, replicate 3); -2.171 in assay [1] (1 uM Trifluoperazine A, no Wnt5a, replicate 4); 12.7683 in assay [1] (Wnt5a + 100 nM Trifluoperazine A, replicate 1); 12.5989 in assay [1] (Wnt5a + 100 nM Trifluoperazine A, replicate 2); 11.621 in assay [1] (Wnt5a + 100 nM Trifluoperazine A, replicate 3); 16.7645 in assay [1] (Wnt5a + 100 nM Trifluoperazine A, replicate 4). The “cystic organoids (sheet SF.5b)” value in assay [1] (Wnt5a + 1 uM Trifluoperazine A, replicate 1) is 9.106; in assay [1] (Wnt5a + 1 uM Trifluoperazine A, replicate 2), 10.2184; in assay [1] (Wnt5a + 1 uM Trifluoperazine A, replicate 3) it was 3.882; in assay [1] (Wnt5a + 1 uM Trifluoperazine A, replicate 4), 10.8434.
For the molecule `O=C(CSc1nc2c(c(=O)n1-c1ccccc1)SCC2)Nc1ccc(-c2ccccc2)cn1` [IWP-L6], the cystic organoid percentage in assay [2] (SF.3d, SCM + inhibitor, replicate 1) is 46.6221; in assay [2] (SF.3d, SCM + inhibitor, replicate 2), 58.2456; in assay [2] (SF.3d, SCM + inhibitor, replicate 3), 31.9347.
Consider `O=C(O)c1ccc2c3c1cccc3c(=O)n1c3ccccc3nc21` [STO609], for which the cystic organoid percentage is recorded as -8.274 in assay [2] (Fig.5l, 5uM, no conditioned medium, replicate 1); -5.955 in assay [2] (Fig.5l, 5uM, no conditioned medium, replicate 2); -8.683 in assay [2] (Fig.5l, 5uM, no conditioned medium, replicate 3); -3.426 in assay [2] (Fig.5l, QCM + 5uM, replicate 1); 1.872 in assay [2] (Fig.5l, QCM + 5uM, replicate 2); -3.616 in assay [2] (Fig.5l, QCM + 5uM, replicate 3). Further, the cystic organoid percentage in assay [2] (Fig.5l, SCM + 5um, replicate 1) is listed as 16.8399; in assay [2] (Fig.5l, SCM + 5um, replicate 2), 8.659; in assay [2] (Fig.5l, SCM + 5um, replicate 3) it was 6.694.
In the case of Verteporfin, in assay [2], the “effect on cystic organoid phenotype” value is “strongly reduced the cystic organoid percentage”.
On to `CC(C)C[C@H](CC(=O)NO)C(=O)N[C@@H](Cc1ccc2ccccc2c1)C(=O)N[C@@H](C)C(=O)NCCN` [TAPI-1], for which the “percentage of cystic organoids” value in assay [2] (SCM from MEFs exposed to TAPI-1 (50 uM, 24 h)) is 21.6102% and 25.641% and 30.6707%.
With cyclosporin A, the “effect on cystic organoid phenotype” value in assay [2] is given as “had no effect on this phenotype”. Moreover, the “cystic organoids (sheet SF.5d)” value in assay [3] (1 uM CsA, no fibroblasts, replicate 1) is reported as -0.1051; in assay [3] (1 uM CsA, no fibroblasts, replicate 2), -6.5368; in assay [3] (1 uM CsA, no fibroblasts, replicate 3) it was 5.663; in assay [3] (Q + 1um CsA (quiescent fibroblasts), replicate 1) it was 19.8791; in assay [3] (Q + 1um CsA (quiescent fibroblasts), replicate 2), 16.6126; in assay [3] (Q + 1um CsA (quiescent fibroblasts), replicate 3) it was 9.858. Moreover, the “cystic organoids (sheet SF.5d)” value is 45.7387 in assay [3] (SEN + 1uM CsA (senescent fibroblasts), replicate 1); 66.7022 in assay [3] (SEN + 1uM CsA (senescent fibroblasts), replicate 2); 42.5108 in assay [3] (SEN + 1uM CsA (senescent fibroblasts), replicate 3).
In the case of `CN([C@@H](Cc1ccc(OS(=O)(=O)c2cccc3cnccc23)cc1)C(=O)N1CCN(c2ccccc2)CC1)S(=O)(=O)c1cccc2cnccc12` [KN62], the cystic organoid percentage in assay [2] (Fig.5l, 10uM, no conditioned medium, replicate 1) is 0.2849; in assay [2] (Fig.5l, 10uM, no conditioned medium, replicate 2), -0.03848; in assay [2] (Fig.5l, 10uM, no conditioned medium, replicate 3), 4.343; in assay [2] (Fig.5l, QCM + 10uM, replicate 1), -7.21; in assay [2] (Fig.5l, QCM + 10uM, replicate 2), -3.018; in assay [2] (Fig.5l, QCM + 10uM, replicate 3), -12.8255. Besides, the cystic organoid percentage in assay [2] (Fig.5l, SCM + 10um, replicate 1) is given as -3.501; in assay [2] (Fig.5l, SCM + 10um, replicate 2), 1.186; in assay [2] (Fig.5l, SCM + 10um, replicate 3) it was 0.111.
For `CNC(=O)[C@H](Cc1c[nH]c2ccccc12)NC(=O)[C@@H](CC(=O)NO)CC(C)C` [GM6001], the “percentage of cystic organoids” value in assay [2] (SCM from MEFs exposed to GM6001 (20 uM, 24 h)) was 29.2391% and 41.0714% and 39.5302%.
Regarding `O=C(CCl)c1ccccc1Nc1cccc(C(F)(F)F)c1` [TED347], the cystic organoid percentage is given as -4.167 in assay [2] (Fig.7e, 2 uM, no conditioned medium, replicate 1); 2.041 in assay [2] (Fig.7e, 2 uM, no conditioned medium, replicate 2); 3.815 in assay [2] (Fig.7e, 2 uM, no conditioned medium, replicate 3); 3.646 in assay [2] (Fig.7e, QCM + 2 uM, replicate 1); 2.9703 in assay [2] (Fig.7e, QCM + 2 uM, replicate 2); -0.09671 in assay [2] (Fig.7e, QCM + 2 uM, replicate 3). Also, the cystic organoid percentage is recorded as 13.1944 in assay [2] (Fig.7e, SCM + 2 uM, replicate 1); 21.2963 in assay [2] (Fig.7e, SCM + 2 uM, replicate 2); 18.1818 in assay [2] (Fig.7e, SCM + 2 uM, replicate 3). In addition, the “effect on cystic organoid phenotype” value in assay [2] was “reduced the percentage of cystic organoids”.
